# According to US20230255938A1, “COMPOSITION FOR INHIBITING SEBUM SECRETION COMPRISING FABP4 INHIBITOR” (THE INDUSTRY & ACADEMIC COOPERATION IN CHUNGNAM NATIONAL …, priority 2022, published 2023):
# What was measured:
# Format in all cases: cell-based
# [1] = test system: immortalized human sebocytes; experiment: TLC of intracellular lipids (14C-acetate), IGF-1-induced lipid synthesis; conditions: 1, 2 or 5 μM; TLC 48 hours after IGF-1 (50 ng/mL) treatment; FIG. 1 right
# Description: (§1) Immortalized human sebocytes were used for the experiment. The cell lines were established as previously described. All procedures were approved by the Institutional Committee of Chungnam National University Hospital. The immortalized human sebocytes were cultured in Sebomed medium (Biochrom, Berlin, Germany) supplemented with 10% fetal bovine serum (Gibco BRL, Rockville, Md., USA) and 5 ng/mL of recombinant human EGF (Invitrogen, Grand Island, N.Y., USA).
# For quantitative analysis of intracellular lipids, the present invention used the TLC method as used in previous studies. Briefly, immortalized human sebocytes were cultured in a medium containing 2 μCi of ^14C-acetate and sodium salt (PerkinElmer, Boston, Mass., USA) and allowed to react for 4 hours. Intracellular lipids were extracted with chloroform and methanol (2:1, v/v). The solvent was evaporated and the lipid was resuspended in chloroform. TLC (TLC silica gel 60 F254, Merck KgaA) was used to separate intracellular lipids. After development with hexane and ethyl acetate (6:1, v/v), intracellular lipids were visualized by radioactivity measurement.
# The effect of BMS309403 on IGF-1-induced lipid synthesis was measured using an immortalized human sebaceous cell line established in a previous study. Immortalized human sebocytes were treated with 1, 2 or 5 μM of BMS309403. After treatment with BMS309403 for 1 hour, sebocytes were treated with 50 ng/mL of IGF-1 to induce differentiation and lipid synthesis.
# IGF-1 increased the Intracellular lipid synthesis such as cholesterol, triglycerides, wax esters and squalene in immortalized human sebocytes.
# phospho-Akt = experiment: Western blotting of phospho-Akt in IGF-1-treated immortalized human sebocytes; conditions: 1, 2 or 5 μM BMS309403 for 1 hour, then 50 ng/mL IGF-1; Western blot, FIG. 1 lower left
# Description: as §1
# (§2) After harvesting, the cells were lysed in protein extraction solution (Intron, Daejeon, Korea). Equal amounts of protein were then loaded and separated by […], and then the proteins were transferred onto nitrocellulose membranes (Pall Corp., Port Washington, N.Y., USA). After blocking with 5% skim milk, the membranes were incubated with various primary antibodies. The blot was reacted with a secondary antibody conjugated with peroxidase, and were visualized for specific proteins with ECL (BIOMAX, Seoul, Korea). The primary antibodies used in western blot analysis were as follows: Actin, SREBP-1(Santa Cruz, Calif.), PPAR-γ, phospho-IGFR (p-IGFR), phospho-Akt (Cell Signaling Technology, Danvers, Mass.)
# (§3) The effect of BMS309403 on IGF-1-induced lipid synthesis was measured using an immortalized human sebaceous cell line established in a previous study. Immortalized human sebocytes were treated with 1, 2 or 5 μM of BMS309403. […]
# PPAR-γ = experiment: Western blotting of PPAR-γ in IGF-1-treated immortalized human sebocytes; conditions: 1, 2 or 5 μM BMS309403 for 1 hour, then 50 ng/mL IGF-1; Western blot, FIG. 1 upper left
# Description: as §1, §2, §3
# SREBP-1 = experiment: Western blotting of SREBP-1 in IGF-1-treated immortalized human sebocytes; conditions: 1, 2 or 5 μM BMS309403 for 1 hour, then 50 ng/mL IGF-1; Western blot, FIG. 1 upper left
# Description: as §1, §2, §3
# phospho-IGFR (p-IGFR) = experiment: Western blotting of phospho-IGFR in IGF-1-treated immortalized human sebocytes; conditions: 1, 2 or 5 μM BMS309403 for 1 hour, then 50 ng/mL IGF-1; Western blot, FIG. 1 lower left
# Description: as §1, §2, §3
smiles,measurement,setting,value
CCc1c(-c2ccccc2)c(-c2ccccc2)nn1-c1ccccc1-c1cccc(OCC(=O)O)c1 [BMS309403],"IGF-1-induced lipid synthesis (cholesterol, triglycerides, wax esters and squalene)",[1],reduced IGF-1-induced lipid synthesis
same,intracellular lipid accumulation,[1],reduced intracellular lipid accumulation in a dose-dependent manner
same,synthesis of squalene,[1],significantly reduced
same,synthesis of wax esters,[1],significantly reduced
same,phosphorylation of Akt,phospho-Akt,markedly reduced phosphorylation of IGFR and Akt in a dose-dependent manner
same,level of PPAR-γ (transcription factor related to sebocyte differentiation),PPAR-γ,decreased their levels in a dose-dependent manner
same,level of SREBP-1 (transcription factor related to sebocyte differentiation),SREBP-1,decreased their levels in a dose-dependent manner
same,phosphorylation of IGFR,phospho-IGFR (p-IGFR),markedly reduced phosphorylation of IGFR and Akt in a dose-dependent manner
